Test [1] deals with T1, α2-adrenergic receptor ([3H] clonidine binding site in calf cerebral cortex) (Bos taurus, UniProt Q28838).
T1 construct: from tissue; host or cells: calf cerebral cortex
T1 sequence (Q28838 1-468): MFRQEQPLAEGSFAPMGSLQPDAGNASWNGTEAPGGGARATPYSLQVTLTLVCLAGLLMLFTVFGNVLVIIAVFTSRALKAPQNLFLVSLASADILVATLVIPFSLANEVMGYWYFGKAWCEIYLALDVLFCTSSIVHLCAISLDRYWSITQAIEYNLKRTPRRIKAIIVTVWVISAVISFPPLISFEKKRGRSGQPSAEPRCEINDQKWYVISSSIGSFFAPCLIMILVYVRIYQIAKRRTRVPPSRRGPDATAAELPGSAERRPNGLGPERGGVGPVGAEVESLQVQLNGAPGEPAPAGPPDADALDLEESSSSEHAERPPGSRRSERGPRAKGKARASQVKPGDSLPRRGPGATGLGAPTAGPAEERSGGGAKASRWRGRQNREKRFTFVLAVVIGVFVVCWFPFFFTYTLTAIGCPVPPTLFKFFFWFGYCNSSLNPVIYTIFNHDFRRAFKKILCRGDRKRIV
Description: α2-adrenergic receptor binding ([3H] clonidine binding site). The method, then:
Binding to the α2 -adrenergic receptor was determined by the method of Lyon and Randall, Life Sciences, 26, 1121 (1980) and also is expressed in Table I as Ki representing the affinity of each compound for the [^3 H] clonidine binding site in calf cerebral cortex.

Test [2] deals with α1-adrenergic receptor ([3H] prazosin binding site in calf cerebral cortex). Description: α1-adrenergic receptor binding ([3H] prazosin binding site). Here is the method:
The α1 - and α2 -adrenergic receptor binding as determined for some of the active compounds of this invention are shown in Table I.
Extent of binding to the α1 -adrenergic receptor was determined by the method of Greengrass and Bremner, Eur. J. Pharmacol., 55, 323 (1979) and is expressed in Table I as Ki, representing the affinity of each compound for the [^3 H] prazosin binding site in calf cerebral cortex.

Test [3] concerns α-Methyldopa (α-MD) Depression of Rat Locomotor Activity. Kind of test: Antagonism of α-methyldopa (α-MD) depression of rat locomotor activity. The test is classed as in vivo, Female Sprague-Dawley rats. The conditions noted are these: 20-minute period. An excerpt: Female Sprague-Dawley rats (Sprague-Dawley, Madison, Wis.) weighing 55-90 g were used in these studies. The test apparatus consisted of 10 activity chambers in a closed metal cabinet separated into individual compartments measuring 43×43 cm with a solid partition between each chamber. Ventilation in the cabinet was provided by two high speed fans, and background noise was supplied with a Grason-Stadler Noise Generator. The activity chambers were constructed from clear plexiglass cylinders, 30 cm high by 30 cm in diameter. Two infrared photocells were mounted at a height of 3 cm above the floor, the receivers being at the same height and directly opposite. Interruption of either of the beams registered independently as an activity count. The accumulated locomotor activity counts were stored in a microprocessor-based acquisition system and printed out at a preprogrammed interval on an ASR-33 Teletype unit. The decrease in locomotor activity caused by α-MD is most readily demonstrable during the time immediately following introduction of the rats into the test apparatus. Therefore, activity counts were recorded for a 20-minute period, beginning with placement of the animals in the test chambers. Animals with the various treatments were systematically rotated through the chambers. […] Dunnett's test was used for comparison of several treatment groups with a control group and the least significant difference test for comparison of the means of any two treatment groups. A P value of 0.05 (two-sided) was considered as indicating significance.
Animals were pretreated (3 hours, 4 minutes) with α-MD (200 or 400 mg/kg, p.o.), and various doses of 8-(1-piperazinyl)imidazo[1,2-a]pyrazine.2HCl.H2 O (0.11-3.0 mg/kg, sc) 40 minutes prior to testing. Vehicles used in control animals were 1% methylcellulose (in which α-MD was suspended) and saline (in which the experimental compound was dissolved).

In test [4] the test system is sedation produced by clonidine. The following applies: Drew et al., 1979; cited from earlier work.
The test system of test [5] is locomotor depressant effects of methyldopa in rats. The following applies: Clineschmidt et al., 1980; cited from earlier work.
For test [6], the system named is clonidine-induced sedation in man. The conditions noted are these: Autret et al., 1977; cited from earlier work.

Take `Clc1cn2ccnc2c(N2CCNCC2)n1` [Compound 1]: the Ki – broadly, a dissociation constant, usually derived from enzyme kinetics or from competition with a known ligand – in test [1] is 73 nM; in test [2] it was 250 nM.

Turning to `Clc1cnc2c(N3CCNCC3)nccn12` [Compound 2], the Ki in test [1] is 240 nM; in test [2], 2800 nM.

For the compound `c1cn2ccnc2c(N2CCNCC2)n1` [Compound 3, 8-(1-piperazinyl)imidazo[1,2-a]pyrazine], the results for the Ki in test [1] and in test [2] were 15 nM and 3100 nM, respectively.

For the compound `CN1CCN(c2nc(Cl)cn3ccnc23)CC1` [Compound 4], the Ki amounted to 121 nM in test [1] and 380 nM in test [2].

For the compound `Cl.Cl.O.c1cn2ccnc2c(N2CCNCC2)n1` [Compound, 8-(1-piperazinyl)imidazo[1,2-a]pyrazine dihydrochloride hydrate], the “locomotor activity (square roots of activity counts)” value (“locomotor activity” below) in test [3] (experiment 1, compound 0.11 mg/kg s.c. 40 min, with α-MD 400 mg/kg p.o.) stood at 5.1 ± 0.5; in test [3] (experiment 1, compound 0.33 mg/kg s.c. 40 min, with α-MD 400 mg/kg p.o.), 8.4 ± 0.9; in test [3] (experiment 1, compound 1.0 mg/kg s.c. 40 min, with α-MD 400 mg/kg p.o.) it was 11.7 ± 1.3; in test [3] (experiment 1, compound 3 mg/kg s.c. 40 min after α-MD 400 mg/kg p.o.) it was 11.6 ± 1.3; in test [3] (experiment 2, compound 0.11 mg/kg s.c. 40 min, with α-MD 200 mg/kg p.o.), 8.4 ± 1.1; in test [3] (experiment 2, compound 0.33 mg/kg s.c. 40 min, with α-MD 200 mg/kg p.o.), 9.5 ± 1.2. In addition, the “locomotor activity” value in test [3] (experiment 2, compound 1.0 mg/kg s.c. 40 min, with α-MD 200 mg/kg p.o.) is 11.4 ± 1.2; in test [3] (experiment 2, compound 3.0 mg/kg s.c. 40 min, with α-MD 200 mg/kg p.o.), 12.2 ± 1.2.

For `COC(=O)[C@@H]1[C@H]2C[C@H]3c4[nH]c5ccccc5c4CCN3C[C@@H]2CC[C@@H]1O` [yohimbine], the “effect on sedation produced by clonidine” value in test [4] is listed as “antagonizes the sedation produced by clonidine”. Moreover, in test [5], the “effect on locomotor depressant effects of methyldopa” value is “antagonizes”. In addition, the “effect on clonidine-induced sedation in man” value in test [6] is “reduce clonidine-induced sedation in man”.

`C[C@](N)(Cc1ccc(O)c(O)c1)C(=O)O` [α-MD, α-Methyldopa, reference compound]: the “locomotor activity” value in test [3] (experiment 1, α-MD 400 mg/kg p.o. 3 hr + saline s.c.) stood at 4.7 ± 0.7; in test [3] (experiment 2, α-MD 200 mg/kg p.o. 3 hr + saline s.c.), 6.8 ± 0.5.

These data come from patent publication US4376772A, “Use of piperazinyl-imidazo[1,2-a]pyrazines in sedation” (Merck & Co., Inc., priority 1981, dated 1983).
